Measurements as given in patent US20260271928A1, “CONTROL OF PESTS RESISTANT TO INSECTICIDES” (Syngenta Crop Protection Ag, priority 2023, published 2026).

Experiments:
Assay type in all cases: in vivo
[1] = tested on: Myzus persicae; assay: Myzus persicae (green peach aphid), mixed population, feeding/contact (sMP); conditions: sensitive strain, pepper plants, spray, mortality 5 days after treatment; 0 = BP80 >50 ppm
Description: Myzus persicae (Green Peach Aphid), Mixed Population, Feeding/Contact (sMP)
Pepper plants were infested with an Myzus persicae population of mixed ages. One day after infestation the plants were treated with the diluted test solutions in a spray chamber. 5 days after treatment samples were assessed for mortality.

[2] = tested on: Resistant Myzus persicae; assay: Resistant Myzus persicae (rMP); conditions: resistant strain, pepper plants, spray, mortality 5 days after treatment; 0 = BP80 >50 ppm
[3] = tested on: Resistant Bemisia tabaci; assay: Resistant Bemisia tabaci (rBT); conditions: resistant strain biotype Q, adults on cotton leaf discs, mortality 4 days after treatment; 0 = BP80 >50 ppm
Description: (§1) Cotton leaf discs were placed upside down in petri dishes on water agar and treated with the diluted test solutions in a spray chamber. After drying, leaf discs were infested with 10 adult Bemisia tabaci. Dishes were covered with a fabric filter and sealed with a perforated plastic lid. 4 days after treatment samples were assessed for mortality.
Resistant Bemisia tabaci (rBT)
Biotype Q originally field-collected in 2000 from Almeria, Spain. […] The strain carried the mutation L925I in the voltage-gated sodium channel conferring resistance to pyrethroids. It also had higher expression of the p450 CYP6CM1 conferring metabolic resistance to neonicotinoids.

[4] = tested on: Bemisia tabaci; assay: Bemisia tabaci (cotton whitefly), adult, feeding/contact (sBT); conditions: sensitive strain, adults on cotton leaf discs, mortality 4 days after treatment; 0 = BP80 >50 ppm
Description: Bemisia tabaci (Cotton Whitefly), Adult, Feeding/Contact (sBT)
as §1

## CC[S@@](=N)(=O)c1cc(C2(C#N)CC2)cnc1-c1nc2cc(C(F)(F)F)cnc2n1C [P24, (R)-1-[5-(ethyl-sulfonimidoyl)-6-[3-methyl-6-(trifluoromethyl)imidazo[4,5-b]pyridin-2-yl]-3-pyridyl]cyclo-propanebonitrile]
[1]
  pBP80 s-MP: 5.2
[2]
  pBP80 r-MP: 4.5
[3]
  pBP80 rBT: 3.9
[4]
  pBP80 sBT: 5.1
